Assay results from ChEMBL document CHEMBL1201862, “PubChem BioAssay data set” (2004).
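A five-concentration, 48-hour dose response in 96-well plates underlies each endpoint, interpolated linearly between surrounding concentrations. At the GI50, growth is halved.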 Activity calls are given as the source filed them. Rule as the data show it: active = GI50 up to about 1.1 µM and inactive = higher.

How the values were obtained:
Test in all cases: NCI tumour cell line growth inhibition, 48 h
SK-MEL-28 = test system: SK-MEL-28
HL-60 = test system: HL-60
SF-268 = test system: SF-268
LXFL 529 = test system: LXFL 529
UACC-257 = test system: UACC-257
MOLT-4 = test system: MOLT-4
ACHN = test system: ACHN
A549 = test system: A549
OVCAR-3 = test system: OVCAR-3
SNB-75 = test system: SNB-75
786-0 = test system: 786-0
SK-OV-3 = test system: SK-OV-3
SN12C = test system: SN12C
KM12 = test system: KM12
SNB-78 = test system: SNB-78
NCI-H460 = test system: NCI-H460
NCI-H23 = test system: NCI-H23
HOP-62 = test system: HOP-62
CAKI-1 = test system: CAKI-1
K562 = test system: K562
SNB-19 = test system: SNB-19
EKVX = test system: EKVX
SF-295 = test system: SF-295
SR = test system: SR
A498 = test system: A498
HT-29 = test system: HT-29
DMS-114 = test system: DMS-114
TK-10 = test system: TK-10
M19-MEL = test system: M19-MEL
NCI-H226 = test system: NCI-H226
LOX IMVI = test system: LOX IMVI
OVCAR-4 = test system: OVCAR-4
NCI-H522 = test system: NCI-H522
Malme-3M = test system: Malme-3M
XF498 = test system: XF498
OVCAR-5 = test system: OVCAR-5
RPMI-8226 = test system: RPMI-8226
HCC 2998 = test system: HCC 2998
SF-539 = test system: SF-539
HOP-18 = test system: HOP-18
RXF 393 = test system: RXF 393
HCT-116 = test system: HCT-116
DMS-273 = test system: DMS-273
U-251 = test system: U-251
UO-31 = test system: UO-31
COLO 205 = test system: COLO 205
UACC-62 = test system: UACC-62
KM-20L2 = test system: KM-20L2
M14 = test system: M14
SK-MEL-5 = test system: SK-MEL-5
OVCAR-8 = test system: OVCAR-8
DLD-1 = test system: DLD-1
HCT-15 = test system: HCT-15
SK-MEL-2 = test system: SK-MEL-2
MCF7 = test system: MCF7
NCI/ADR-RES = test system: NCI/ADR-RES
HOP-92 = test system: HOP-92
CCRF-CEM = test system: CCRF-CEM
SW-620 = test system: SW-620
IGROV-1 = test system: IGROV-1

Measured: GI50

Cc1cc(NS(=O)(=O)c2ccc(Nc3c4ccccc4nc4c(C(=O)Nc5ccc(S(=O)(=O)N=C(N)N)cc5)ccc(Cl)c34)cc2)no1
inactive: SK-MEL-28 54.5 µM | HL-60 22.2 µM | SF-268 23.8 µM | LXFL 529 31.3 µM | UACC-257 > 100 µM | MOLT-4 24.7 µM | ACHN 60.5 µM | A549 > 100 µM | OVCAR-3 21.5 µM | SNB-75 25.9 µM | 786-0 50.4 µM | SK-OV-3 31.7 µM | SN12C 31.2 µM | KM12 87.9 µM | SNB-78 23.4 µM | NCI-H460 98.9 µM | NCI-H23 29.9 µM | HOP-62 22.1 µM | CAKI-1 54.2 µM | K562 22.1 µM | SNB-19 31.7 µM | EKVX 65 µM | SF-295 73.3 µM | SR 25.2 µM | A498 44.6 µM | HT-29 49.7 µM | DMS-114 27.1 µM | TK-10 > 100 µM | M19-MEL 39.8 µM | NCI-H226 28.2 µM | LOX IMVI 19.6 µM | OVCAR-4 28.5 µM | NCI-H522 16 µM | Malme-3M 46.7 µM | XF498 31.4 µM | OVCAR-5 > 100 µM | RPMI-8226 29.8 µM | HCC 2998 38.5 µM | SF-539 18.5 µM | HOP-18 16.4 µM | RXF 393 29 µM | HCT-116 53.8 µM | DMS-273 40.6 µM | U-251 28.6 µM | UO-31 34.5 µM | COLO 205 83 µM | UACC-62 25.1 µM | KM-20L2 98.4 µM | M14 > 100 µM | SK-MEL-5 > 100 µM | OVCAR-8 19.3 µM | DLD-1 47.3 µM

CN(C)CCNC(=O)c1cc(Cl)cc2ccc(-c3ccccc3)nc12
2.85 µM: HCT-15
active: MOLT-4 0.447 µM
inactive: SK-MEL-28 4.83 µM | HL-60 2.05 µM | SF-268 4.57 µM | UACC-257 2.92 µM | A549 2.87 µM | OVCAR-3 3.74 µM | SNB-75 1.86 µM | SK-OV-3 3.13 µM | SN12C 3.02 µM | KM12 4.84 µM | SNB-78 8.13 µM | NCI-H460 2 µM | NCI-H23 3.96 µM | HOP-62 3.13 µM | CAKI-1 2.04 µM | SK-MEL-2 4.85 µM | MCF7 1.82 µM | NCI/ADR-RES 2.51 µM | HOP-92 2.82 µM | K562 1.78 µM | SNB-19 5.04 µM | EKVX 5.12 µM | SF-295 3.86 µM | A498 5.48 µM | HT-29 2.22 µM | DMS-114 3.46 µM | M19-MEL 3.15 µM | NCI-H226 2.49 µM | LOX IMVI 2.32 µM | OVCAR-4 3.92 µM | NCI-H522 5.37 µM | Malme-3M 3.63 µM | CCRF-CEM 1.49 µM | XF498 2.18 µM | OVCAR-5 4.84 µM | RPMI-8226 1.85 µM | HCC 2998 3.54 µM | SF-539 3.09 µM | HOP-18 3.52 µM | RXF 393 3.86 µM | HCT-116 2.18 µM | DMS-273 2.3 µM | U-251 4.32 µM | UO-31 1.91 µM | COLO 205 1.6 µM | UACC-62 2.45 µM | KM-20L2 2.65 µM | SW-620 2.32 µM | IGROV-1 3.18 µM | SK-MEL-5 1.87 µM | OVCAR-8 2.92 µM | DLD-1 3.3 µM

Oc1c(CNCCCN2CCCC2)cc(Cl)c2cccnc12
2.09 µM: HCT-15
inactive: SK-MEL-28 11.2 µM | SF-268 3.27 µM | UACC-257 11.4 µM | MOLT-4 2.77 µM | A549 3.14 µM | OVCAR-3 2.14 µM | SNB-75 13 µM | SK-OV-3 4.13 µM | SN12C 5.64 µM | KM12 4.05 µM | SNB-78 14.2 µM | NCI-H460 2.88 µM | NCI-H23 11 µM | HOP-62 2.66 µM | CAKI-1 3.03 µM | SK-MEL-2 11.1 µM | MCF7 4.56 µM | NCI/ADR-RES 1.48 µM | HOP-92 7 µM | K562 2.37 µM | SNB-19 6.46 µM | EKVX 1.75 µM | SF-295 2.19 µM | A498 15 µM | HT-29 5.3 µM | DMS-114 3.05 µM | M19-MEL 2.52 µM | NCI-H226 3.15 µM | LOX IMVI 3.01 µM | OVCAR-4 3.92 µM | NCI-H522 4.22 µM | Malme-3M 5.55 µM | CCRF-CEM 2.34 µM | XF498 2.56 µM | OVCAR-5 2.52 µM | RPMI-8226 2.38 µM | HCC 2998 3.1 µM | SF-539 2.87 µM | HOP-18 4.95 µM | RXF 393 11.5 µM | HCT-116 2.61 µM | DMS-273 2.83 µM | U-251 4.09 µM | UO-31 3.76 µM | COLO 205 3.79 µM | UACC-62 2.21 µM | KM-20L2 3.78 µM | SW-620 4.01 µM | IGROV-1 6.85 µM | SK-MEL-5 1.36 µM | OVCAR-8 3.24 µM | DLD-1 3.22 µM
active: HL-60 0.364 µM
